Assay results as given in patent publication US10632105B2, “Pharmacological stimulation to facilitate and restore standing and walking functions in spinal cord motor disorders” (ECOLE POLYTECHNIQUE FEDERALE DE LAUSANNE (EPFL), priority 2013, dated 2020).
“Also recorded” adds a separate entry of the source.

What was measured:
[1] = 8-OHDPAT in combination with α2c stimulation and/or α2a blocking, locomotion; type: in vivo; conditions: 8-OHDPAT in combination with the α2c stimulation or the α2a blocking or both
[2] = test system: cats with a complete spinal cord injury; conditions: spinal / spinalized cats, complete SCI; cited from earlier work
[3] = test system: spinal rats; assay: Stepping patterns enabled by EES in spinal rats (complete T7 transection, bipedal treadmill); type: in vivo, rat; conditions: for locomotion / stepping enabled by EES: treadmill 13 cm/s, clonidine 0.4-0.5 mg/kg, BRL-44408 given 5 min before clonidine in the combination
Procedure: Link R E, Desai K, Hein L, Stevens M E, Chruscinski A, Bernstein D, Barsh G S, Kobilka B K. Science. 1996 Aug. 9; 273(5276):803-5).
All procedures have been described in detail previously (see above, Courtine et al., 2009). Briefly, under general anesthesia and aseptic conditions, a partial laminectomy was performed over spinal segments L2 and S1. Teflon-coated stainless-steel wires (AS632; Cooner Wire) were passed under the spinous processes and above the dura mater of the remaining vertebrae between the partial laminectomy sites.
Bipolar intramuscular EMG electrodes using the same wire type as above were inserted bilaterally in the midbelly of the tibialis anterior (TA), midbelly of the vastus lateralis (VL), distal deep compartment of the semitendinosus (St), and medial deep region of the medial gastrocnemius (MG) muscles. All electrode wires were connected to a percutaneous amphenol connector cemented to the rat skull. In the same surgical intervention, the spinal cord was transected completely at a midthoracic level (T7) (Courtine et al., 2009).
All experimental testing followed the same protocol.
In KO mice experiments, only clonidine was injected intraperitoneally.
Three-dimensional video recordings (200 Hz) were made using the motion capture system VICON. Eight infrared television cameras (200 Hz) were used to track the motion of reflective markers attached bilaterally at the iliac crest, greater trochanter, lateral condyle, lateral malleolus, distal end of the fifth metatarsal [metatarsophalangeal joint (MTP)], and tip of the toe (FIG. 1A). Nexus (Vicon) was used to obtain 3-D coordinates of the markers. The body was modeled as an interconnected chain of rigid segments, and joint angles were generated accordingly.
Moments and ground reaction forces in the vertical, antero-posterior, and mediolateral directions were monitored using a biomechanical force plate (2 kHz; HE6X6; AMTI) located below the treadmill belt (FIG. 1A). Vicon BodyBuilder (Vicon) was used to compute the displacements of the center of foot pressures.
EMG signals (2 kHz) were amplified, filtered (10-1000 Hz bandpass), stored, and analyzed off-line to compute the amplitude, duration, and timing of individual bursts (Courtine et al., 2009).
Ten successive step cycles were extracted for both the left and right hindlimbs from a continuous sequence of stepping on the treadmill for each animal under each condition. When no stepping movements were observed, a 10 s period was recorded and analyzed. A total of 129 parameters quantifying gait, kinematics, kinetics, and EMG features were computed for each limb and gait cycle according to methods described in detail previously (Kinematic and EMG determinants in quadrupedal locomotion of a non-human primate (Rhesus). Courtine G, Roy R R, Hodgson J, McKay H, Raven J, Zhong H, Yang H, Tuszynski M H, Edgerton V R. J Neurophysiol. 2005 June; 93(6):3127-45; Recovery of supraspinal control of stepping via indirect propriospinal relay connections after spinal cord injury. Courtine G, Song B, Roy R R, Zhong H, Herrmann J E, Ao Y, Qi J, Edgerton V R, Sofroniew M V. Nat Med. 2008 January; 14(1):69-74; Transformation of nonfunctional spinal circuits into functional states after the loss of brain input. Courtine G, Gerasimenko Y, van den Brand R, Yew A, Musienko P, Zhong H, Song B, Ao Y, Ichiyama R M, Lavrov I, Roy R R, Sofroniew M V, Edgerton V R. Nat Neurosci. 2009 October; 12(10): 1333-42).
These parameters provided a holistic quantification of locomotor patterns ranging from general features of gait to fine details of limb motions and coordination. To allow direct comparisons between the different experimental conditions, all computed variables were normalized to those measured before drug injection (i.e., during locomotion facilitated by dual-site EES alone).
All data are reported as mean values±SEM. Repeated-measures ANOVAs were used to test differences between locomotor parameters recorded before and after drug injections […]

[4] = test system: humans with a severe spinal cord injury; conditions: cited from earlier work
[5] = test system: rats with complete SCI; conditions: rats with complete SCI (Musienko et al. 2011); cited from earlier work
[6] = test system: α2c KO mice; conditions: spinal α2c KO mice, EES, clonidine i.p.
Procedure: (§1) The experiments in rats were conducted on adult female Sprague Dawley (300 g body weight). Functional testings in mice were carried out in α2a and α2c knockout animals aged 3-5 months, from both gender, obtained from L. Hein (University of Freiburg, Germany). The generation of the mouse lines lacking α2-adrenoreceptor subtypes has been previously described in detail (Abnormal regulation of the sympathetic nervous system in alpha2A-adrenergic receptor knockout mice. Altman J D, Trendelenburg A U, MacMillan L, Bernstein D, Limbird L, Starke K, Kobilka B K, Hein L. Mol Pharmacol. 1999 July; 56(1):154-61; Targeted inactivation of the gene encoding the mouse alpha 2c-adrenoceptor homolog. Link R E, Stevens M S, Kulatunga M, Scheinin M, Barsh G S, Kobilka B K. Mol Pharmacol. 1995 July; 48(1):48-55; Cardiovascular regulation in mice lacking alpha2-adrenergic receptor subtypes b and c. Link R E, Desai K, Hein L, Stevens M E, Chruscinski A, Bernstein D, Barsh G S, Kobilka B K. Science. 1996 Aug. 9; 273(5276):803-5). To investigate the spinal distribution of the α2 subtypes, we used BAC transgenic mice expressing the reporter protein GFP upstream the coding sequence of the α2a or α2c receptor subtype (strains 014248-UCD and 030098-UCD MMRRC, USA). All procedures were approved by the Veterinary Office of the Canton of Vaud, Switzerland. Animals were housed individually on a 12 h light/dark cycle, with access to food and water ad libitum.
(§2) All tested animals were allowed to recover for 2-5 weeks after lesion to regain stable levels of excitability in the spinal networks to facilitate locomotion via EES (Epidural stimulation induced modulation of spinal locomotor networks in adult spinal rats. Lavrov I, Dy C J, Fong A J, Gerasimenko Y, Courtine G, Zhong H, Roy R R, Edgerton V R. J Neurosci. 2008). An upper body harness was used to position the rats over a treadmill belt and to partially support their body weight during bipedal locomotion (FIG. 1A). An automated, servocontrolled body weight support system (Robomedica) measured and provided the optimal amount of body weight support that each rat needed to step. To facilitate locomotion via EES, monopolar rectangular pulses (0.2 ms duration) were delivered at 40 Hz using two constant-current stimulators (AM Systems) connected to the electrodes positioned at L2 and S1.

[7] = test system: α2a KO mice; conditions: spinal α2a KO mice, EES, clonidine i.p.
Procedure: as §1, §2

[8] = 5 weeks after lesion, with EES, i.p., BRL-44408 4-5 mg/kg
[9] = 5 weeks after lesion, with EES, i.p., BRL-44408 4-5 mg/kg, clonidine 0.4 mg/kg
[10] = 2 weeks after lesion, 200 umol/kg, together with EES

CCCN(CCC)C1CCc2cccc(O)c2C1 (centres unmarked) [8-OHDPAT]
locomotion [1]: further facilitation of locomotion

Clc1ccc2nsnc2c1NC1=NCCN1 [tizanidine]
locomotion [2]: facilitated expression of locomotion

CC1c2ccccc2CN1CC1=NCCN1 (centres unmarked) [BRL-44408, 2-[(4,5-Dihydro-1H-imidazol-2-yl)methyl]-2,3-dihydro-1-methyl-1H-isoindole]
locomotion / stepping enabled by EES [3, 8]: improved locomotion; also recorded: moderately improves locomotion
paw dragging [3, 9]: reduced paw dragging
step height [3, 9]: substantially improved the step height

NC1=N[C@@H](Cc2c(F)cccc2F)CO1 [formula (I)]
locomotion ([3]; 2 weeks after lesion, 200 umol/kg, effect exclusively when applied together with spinal cord stimulation (EES)): significantly improved locomotion
limb amplitude [3, 10]: increased the limb amplitude
paw dragging [3, 10]: reduced the paw dragging

Clc1cccc(Cl)c1N=C1NCCN1 [clonidine]
locomotion ([4]; human, clonidine injections (Dietz et al. 1995)): dysfacilitated locomotion
locomotor EMG activity ([4]; humans with a severe spinal cord injury, low clonidine dosages (Dietz et al., 1995)): suppress or markedly reduce locomotor EMG activity
stepping [5]: abolished stepping
locomotor abilities [6]: significant blocking of the locomotor abilities
locomotor function [7]: triggered a facilitation of the locomotor function
locomotor stability [7]: improvement of locomotor stability
movement magnitudes of the hindlimb joints [7]: increase of the movement magnitudes of the hindlimb joints
locomotion [2]: marked facilitation of locomotion
locomotion / stepping enabled by EES [3, 8]: abolished the stepping enabled by EES
